pIC50: −log10 of the molar value.
Biological target: T1, Human complement C1s enzyme (Homo sapiens, UniProt P09871)
T1 construct: purified from human serum, Complement Technology, Inc; purchased Complement Technology, Inc; host or cells: human serum
T1 sequence (P09871 438-688 limits assumed): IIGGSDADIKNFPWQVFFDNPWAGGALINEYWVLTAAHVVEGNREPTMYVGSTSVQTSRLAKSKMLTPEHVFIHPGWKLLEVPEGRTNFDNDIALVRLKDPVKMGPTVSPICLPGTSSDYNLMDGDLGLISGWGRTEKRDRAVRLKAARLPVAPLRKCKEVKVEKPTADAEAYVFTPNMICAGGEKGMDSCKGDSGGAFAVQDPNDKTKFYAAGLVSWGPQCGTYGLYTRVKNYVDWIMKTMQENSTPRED
T1 sequence (P09871 16-437 partner limits assumed): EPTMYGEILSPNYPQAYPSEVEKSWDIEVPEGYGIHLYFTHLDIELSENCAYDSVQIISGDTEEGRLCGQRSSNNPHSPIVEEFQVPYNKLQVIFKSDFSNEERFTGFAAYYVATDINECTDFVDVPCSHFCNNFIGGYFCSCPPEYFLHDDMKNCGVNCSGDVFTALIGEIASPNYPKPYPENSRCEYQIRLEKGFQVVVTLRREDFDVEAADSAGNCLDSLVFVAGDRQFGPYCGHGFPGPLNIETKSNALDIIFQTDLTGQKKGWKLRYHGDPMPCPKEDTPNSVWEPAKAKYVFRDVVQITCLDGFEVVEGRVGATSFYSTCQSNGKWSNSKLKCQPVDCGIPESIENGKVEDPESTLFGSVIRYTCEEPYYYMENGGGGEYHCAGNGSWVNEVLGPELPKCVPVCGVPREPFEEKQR
Test: Human C1s Enzyme Assay
Assay type: biochemical
Details: human C1s 1.16 nM, 5 min preincubation, substrate Z-L-Lys-SBzl 100 μM, A405; read-out: C1s Protease Activity
Procedure, shortened: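 C1s purified from human serum (1.16 nM final) was preincubated with compound for 5 min at room temperature in 50 mM Tris, 1 M NaCl, pH 7.5. Z-L-Lys-SBzl and DTNB were then added at 100 μM each, and A405 was followed for 30 min. IC50 came from nonlinear regression of reaction rates.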

SMILES | pIC50
N=C(N)c1csc(CNC(=O)[C@@H]2C[C@](F)(CO)CN2C(=O)CNC(=O)CCCOc2ccccc2)c1 [Compound 66, (2S,4R)-N-((4-carbamimidoylthiophen-2-yl)methyl)-4-fluoro-4-(hydroxymethyl)-1-((4-phenoxybutanoyl)glycyl)pyrrolidine-2-carboxamide] | > 7.00
C[C@@]12C[C@@H]1N(C(=O)CNC(=O)c1ccc(Oc3ccccc3)cc1)[C@H](C(=O)NCc1ccc3onc(N)c3c1)C2 [Compound 67, (1S,3S,5S)-N-((3-aminobenzo[d]isoxazol-5-yl)methyl)-5-methyl-2-((4-phenoxy-benzoyl)glycyl)-2-azabicyclo[3.1.0]hexane-3-carboxamide] | < 6.00
C[S@](=N)(=O)[C@@H]1C[C@@H](C(=O)NCc2cc(C(=N)N)cs2)N(C(=O)CNC(=O)c2ccc(Oc3ccccc3)cc2)C1 [Compound 68, (2S,4R)-N-((4-carbamimidoylthiophen-2-yl)methyl)-4-((S)-S-methylsulfonimidoyl)-1-((4-phenoxybenzoyl)glycyl)pyrrolidine-2-carboxamide] | > 7.00
N=C(N)c1csc(CNC(=O)[C@@H]2C[C@@H](Oc3ccccc3)CN2C(=O)CNC(=O)CCCOc2ccccc2)c1 [Compound 69, (2S,4R)-N-((4-carbamimidoylthiophen-2-yl)methyl)-4-phenoxy-1-((4-phenoxy-butanoyl)glycyl)pyrrolidine-2-carboxamide] | > 7.00
CC(COc1ccccc1)CC(=O)NCC(=O)N1CC2(C[C@H]1C(=O)NCc1cc(C(=N)N)cs1)OCCO2 (stereo partly drawn) [Compound 70, (8S)-N-((4-carbamimidoylthiophen-2-yl)methyl)-7-((3-methyl-4-phenoxybutanoyl)glycyl)-1,4-dioxa-7-azaspiro[4.4]nonane-8-carboxamide] | > 7.00
N=C(N)c1ccc(CNC(=O)[C@@H]2CC3(CN2C(=O)CNC(=O)c2ccc(Oc4ccccc4)cc2)OCCO3)cn1 [Compound 71, (S)-N-((6-carbamimidoylpyridin-3-yl)methyl)-7-((4-phenoxybenzoyl)glycyl)-1,4-dioxa-7-azaspiro[4.4]nonane-8-carboxamide] | > 7.00
COC[C@@]1(F)C[C@@H](C(=O)NCc2cc(C(=N)N)cs2)N(C(=O)CNC(=O)CCCOc2ccccc2)C1 [Compound 72, (2S,4R)-N-((4-carbamimidoylthiophen-2-yl)methyl)-4-fluoro-4-(methoxymethyl)-1-((4-phenoxybutanoyl)glycyl)pyrrolidine-2-carboxamide] | > 7.00
N=C(N)c1csc(CNC(=O)[C@@H]2C[C@H](C3CCCCC3)CN2C(=O)CNC(=O)c2ccc(Oc3ccccc3)cc2)c1 [Compound 73, (2S,4R)-N-((4-carbamimidoylthiophen-2-yl)methyl)-4-cyclohexyl-1-((4-phenoxy-benzoyl)glycyl)pyrrolidine-2-carboxamide] | > 7.00
CC(=O)NCCOC[C@@]12C[C@@H]1N(C(=O)CNC(=O)c1ccc(Oc3ccccc3)cc1)[C@H](C(=O)NCc1cc(C(=N)N)cs1)C2 [Compound 74, (1S,3S,5R)-5-((2-acetamidoethoxy)methyl)-N-((4-carbamimidoylthiophen-2-yl)methyl)-2-((4-phenoxybenzoyl)glycyl)-2-azabicyclo[3.1.0]hexane-3-carboxamide] | > 7.00
COCCCC(=O)NCC(=O)N1[C@H]2C[C@@]2(C)C[C@H]1C(=O)NCc1cc(C(=N)N)cs1 [Compound 75, (1S,3S,5S)-N-((4-carbamimidoylthiophen-2-yl)methyl)-2-((4-methoxybutanoyl)-glycyl)-5-methyl-2-azabicyclo[3.1.0]hexane-3-carboxamide] | 6.00 to 7.00
C[C@@]12C[C@@H]1N(C(=O)CNC(=O)CCCOc1ccc(S(C)(=N)=O)cc1)[C@H](C(=O)NCc1cc(C(=N)N)cs1)C2 (stereo partly drawn) [Compound 76, (1S,3S,5S)-N-((4-carbamimidoylthiophen-2-yl)methyl)-5-methyl-2-((4-(4-(S-methyl-sulfonimidoyl)phenoxy)butanoyl)glycyl)-2-azabicyclo[3.1.0]hexane-3-carboxamide] | 6.00 to 7.00
N=C(N)c1csc(CNC(=O)CNC(=O)CNC(=O)c2ccc(Oc3ccccc3)cc2)c1 [Compound 77, N-(2-((2-(((4-carbamimidoylthiophen-2-yl)methyl)amino)-2-oxoethyl)amino)-2-oxoethyl)-4-phenoxybenzamide] | 6.00 to 7.00
C[C@H](O)[C@H](O)[C@@H](O)[C@@H](O)CNCC(=O)N1[C@H]2C[C@@]2(C)C[C@H]1C(=O)NCc1nc(C(=N)N)cs1 [Compound 78, (1S,3S,5S)-N-((4-carbamimidoylthiazol-2-yl)methyl)-5-methyl-2-(((2S,3S,4S,5S)-2,3,4,5-tetrahydroxyhexyl)glycyl)-2-azabicyclo[3.1.0]hexane-3-carboxamide] | < 6.00
CCOC(=O)c1ccc(OCCCC(=O)NCC(=O)N2[C@H]3C[C@@]3(C)C[C@H]2C(=O)NCc2cc(C(=N)N)cs2)cc1 [Compound 79, Ethyl 4-(4-((2-((1S,3S,5S)-3-(((4-carbamimidoylthiophen-2-yl)methyl)carbamoyl)-5-methyl-2-azabicyclo[3.1.0]hexan-2-yl)-2-oxoethyl)amino)-4-oxobutoxy)benzoate] | > 7.00
C[C@@]12C[C@@H]1N(C(=O)CNC(=O)CCCOc1ccc(C(=O)O)cc1)[C@H](C(=O)NCc1cc(C(=N)N)cs1)C2 [Compound 80, 4-(4-((2-((1S,3S,5S)-3-(((4-carbamimidoylthiophen-2-yl)methyl)carbamoyl)-5-methyl-2-azabicyclo[3.1.0]hexan-2-yl)-2-oxoethyl)amino)-4-oxobutoxy)benzoic acid] | 6.00 to 7.00
C[C@@]12C[C@@H]1N(C(=O)CNC(=O)CCCCc1ccccc1)[C@H](C(=O)NCc1cc(C(=N)N)cs1)C2 [Compound 81, (1S,3S,5S)-N-((4-carbamimidoylthiophen-2-yl)methyl)-5-methyl-2-((5-phenyl-pentanoyl)glycyl)-2-azabicyclo[3.1.0]hexane-3-carboxamide] | > 7.00
N=C(N)c1csc(CNC(=O)[C@@H]2CC3(CCCC3)CN2C(=O)CNC(=O)CCCOc2ccccc2)c1 [Compound 82, (S)-N-((4-carbamimidoylthiophen-2-yl)methyl)-2-((4-phenoxybutanoyl)glycyl)-2-azaspiro[4.4]nonane-3-carboxamide] | 6.00 to 7.00
N=C(N)c1ccc(CNC(=O)[C@@H]2CC3(CN2C(=O)CNC(=O)CCCOc2ccccc2)OCCO3)s1 [Compound 83, (S)-N-((5-carbamimidoylthiophen-2-yl)methyl)-7-((4-phenoxybutanoyl)glycyl)-1,4-dioxa-7-azaspiro[4.4]nonane-8-carboxamide] | > 7.00
N=C(N)c1csc(CNC(=O)[C@@H]2C[C@]3(CO)C[C@@H]3N2C(=O)CNC(=O)CCCOc2ccccc2)c1 [Compound 84, (1S,3S,5R)-N-((4-carbamimidoylthiophen-2-yl)methyl)-5-(hydroxymethyl)-2-((4-phenoxybutanoyl)glycyl)-2-azabicyclo[3.1.0]hexane-3-carboxamide] | 6.00 to 7.00
[N-]=[N+]=NC[C@@]1(F)C[C@@H](C(=O)NCc2cc(C(=N)N)cs2)N(C(=O)CNC(=O)CCCOc2ccccc2)C1 [Compound 85, (2S,4R)-4-(azidomethyl)-N-((4-carbamimidoylthiophen-2-yl)methyl)-4-fluoro-1-((4-phenoxybutanoyl)glycyl)pyrrolidine-2-carboxamide] | > 7.00

— patent US20250171423A1, “PHARMACEUTICAL COMPOUNDS FOR THE TREATMENT OF COMPLEMENT MEDIATED DISORDERS” (Achillion Pharmaceuticals, Inc., priority 2020, published 2025)
